The values below are quoted from earlier work in patent publication US11904070B2, “Tissue scaffold and scaffold composition” (Locate Therapeutics Limited, priority 2017, dated 2024).

For the series the following is noted: at 25° C.

On to `C[S+](C)[O-]` [DMSO], for which the Solubility in water entry is “Miscible”. With `CN1CCCC1=O` [NMP, N-Methyl-2-pyrrolidone], the Solubility in water result is recorded as “Miscible”. In the case of `CCO` [EtOH, Ethanol], the Solubility in water result was “Miscible”. Take `CC(=O)OCC(COC(C)=O)OC(C)=O` [Triacetin, triacetin]: the Solubility in water is listed as 5.8 % w/v. As to polyethylene glycol 400 [PEG400], the Solubility in water entry is “Miscible”. Regarding `OCC(O)CO` [Glycerol], the Solubility in water entry is “Miscible”.
